Laboratory results: BigSolDB 2.1

solubility (mole fraction) (in 1,4-dioxane, 298.15 K) | solubility (mole fraction) (in 1,4-dioxane, 303.15 K) | solubility (mole fraction) (in 1,4-dioxane, 308.15 K) | solubility (mole fraction) (in 1,4-dioxane, 313.15 K) | solubility (mole fraction) (in 1,4-dioxane, 318.15 K) | solubility (mole fraction) (in DMF, 298.15 K) | solubility (mole fraction) (in DMF, 303.15 K) | solubility (mole fraction) (in DMF, 308.15 K) | solubility (mole fraction) (in DMF, 313.15 K) | solubility (mole fraction) (in DMF, 318.15 K) | SMILES
0.00617 | 0.00623 | 0.00622 | 0.00624 | 0.00628 | 0.00696 | 0.007 | 0.0071 | 0.0072 | 0.00721 | O=C(/C=C/c1ccc(-c2cccc([N+](=O)[O-])c2)o1)c1ccc2ccc(=O)oc2c1
0.00229 | 0.00232 | 0.00239 | 0.00241 | 0.00245 | 0.00237 | 0.0024 | 0.00244 | 0.00245 | 0.00248 | O=C(/C=C/c1ccc(-c2cccc([N+](=O)[O-])c2)o1)c1ccc([N+](=O)[O-])cc1
0.00732 | 0.00733 | 0.00737 | 0.00742 | 0.00744 | 0.0112 | 0.0112 | 0.0113 | 0.0113 | 0.0114 | COc1ccc(C(=O)/C=C/c2ccc(-c3cccc([N+](=O)[O-])c3)o2)cc1
0.00596 | 0.00601 | 0.00602 | 0.00605 | 0.00608 | 0.00604 | 0.0061 | 0.00614 | 0.0062 | 0.0062 | O=C(/C=C/c1ccc(-c2cccc([N+](=O)[O-])c2)o1)c1cccc([N+](=O)[O-])c1
0.00705 | 0.00707 | 0.0071 | 0.00711 | 0.00714 | 0.0094 | 0.00945 | 0.0095 | 0.0095 | 0.00959 | O=C(/C=C/c1ccc(-c2cccc([N+](=O)[O-])c2)o1)CO
0.00553 | 0.0056 | 0.00565 | 0.00571 | 0.00573 | 0.00983 | 0.0099 | 0.00998 | 0.0101 | 0.0101 | O=C(/C=C/c1ccc(-c2cccc([N+](=O)[O-])c2)o1)c1ccccc1
0.00573 | 0.0058 | 0.00581 | 0.00591 | 0.00592 | 0.00665 | 0.0067 | 0.00675 | 0.0068 | 0.00692 | O=C(/C=C/c1ccc(-c2cccc([N+](=O)[O-])c2)o1)c1ccc(O)cc1
0.00489 | 0.00491 | 0.00495 | 0.00501 | 0.00501 | 0.00705 | 0.0071 | 0.00714 | 0.00722 | 0.00726 | O=C(/C=C/c1ccc(-c2cccc([N+](=O)[O-])c2)o1)c1ccc(Br)cc1
0.00245 | 0.00248 | 0.0025 | 0.00252 | 0.00255 | 0.00264 | 0.00264 | 0.00264 | 0.00264 | 0.00264 | Nc1ccc(C(=O)/C=C/c2ccc(-c3cccc([N+](=O)[O-])c3)o2)cc1
0.00271 | 0.00272 | 0.00277 | 0.00282 | 0.00284 | 0.0045 | 0.0046 | 0.00468 | 0.0047 | 0.0048 | O=C(/C=C/c1ccc(-c2cccc([N+](=O)[O-])c2)o1)c1ccc(Cl)cc1
